Biological target: BRD4-BD1 (Homo sapiens (Human), UniProt O60885)
Test: BRD4-H4 Tetraacetylated Peptide Inhibition AlphaScreen
Type: biochemical
Details: GST-BRD4-BD1 (aa 44-168) / biotinylated Acetyl-Histone H4 (Lys5, 8, 12, 16) peptide
Procedure: Biological Methods BRD4-H4 Tetraacetylated Peptide Inhibition AlphaScreen
Compounds are diluted in serial dilution 1:5 in assay buffer from 10 mM stock in DMSO (100 μM start concentration) in white OptiPlate-384 (PerkinElmer). A mix consisting of 15 nM GST-BRD4-BD1 protein (aa 44-168) or 150 nM GST-BRD4-BD2 (aa 333-460) and 15 nM biotinylated Acetyl-Histone H4 (Lys5, 8, 12, 16) peptide is prepared in assay buffer (50 mM HEPES pH=7.4; 25 mM NaCl; 0.05% Tween 20; 0.1% bovine serum albumin (BSA); 10 mM dithiothreitol (DTT)). 6 μl of the mix is added to the compound dilutions. Subsequently, 6 μl of premixed AlphaLISA Glutathione Acceptor Beads and AlphaScreen Streptavidin Donor Beads from PerkinElmer (in assay buffer at a concentration of 10 μg/ml each) are added and the samples are incubated for 30 min at RT in the dark (shaking 300 rpm). Afterwards, the signal is measured in a PerkinElmer Envision HTS Multilabel Reader using the AlphaScreen protocol from PerkinElmer.
Each plate contains negative controls where biotinylated Acetyl-Histone H4 peptide and GST-BRD4-BD1 or GST-BRD4-BD2 are left out and replaced by assay buffer. Negative control values are entered as low basis value when using the software GraphPad Prism for calculations. Furthermore, a positive control (probe molecule JQ1+ with protein/peptide mix) is pipetted. Determination of IC50 values are carried out using GraphPad Prism 3.03 software (or updates thereof).

Compound | IC50
COC[C@H](C)n1c(-c2cn3c(C)nnc3c(NC(C)C)n2)nc2ccc(N)cc21 [I-20] | 0.157 µM
COC[C@H](C)n1c(-c2cn3c(C)nnc3c(NC(C)C)n2)nc2ccc(C(C)C)cc21 [I-15] | 0.123 µM
COC[C@H](C)n1c(-c2cn3c(C)nnc3c(NC(C)C)n2)nc2cnc(N)cc21 [I-18] | 0.069 µM
Cc1nnc2c(NC(C)C)nc(-c3nc4cnc(N5CCOCC5)cc4n3C[C@H]3CCCO3)cn12 [I-10] | 0.054 µM
CNc1nc(-c2nc3cnc(N4CCOCC4)cc3n2C[C@@H]2CCCO2)cn2c(C)nnc12 [I-7] | 0.055 µM
COC[C@H](C)n1c(-c2cn3c(C)nnc3c(NC(C)C)n2)nc2cnc(N3CCOC[C@@H]3C)cc21 [I-12] | 0.051 µM
Cc1nnc2c(NC(C)C)nc(-c3nc4cnc(N5CCOCC5)cc4n3C[C@@H]3CCCO3)cn12 [I-8] | 0.055 µM
COC[C@H](C)n1c(-c2cn3c(C)nnc3c(N)n2)nc2cnc(N3CCOCC3)cc21 [I-26] | 0.123 µM
CNc1nc(-c2nc3cnc(N4CCOCC4)cc3n2[C@@H](C)COC)cn2c(C)nnc12 [I-6] | 0.051 µM
COC[C@H](C)n1c(-c2cn3c(C)nnc3c(NC(C)C)n2)nc2ccc(C3CN(C)CCO3)cc21 (stereo partly shown) [I-24] | 0.063 µM
COC[C@H](C)n1c(-c2cn3c(C)nnc3c(NC(C)C)n2)nc2ccc(N3CCOCC3)nc21 [I-28] | 0.069 µM
Cc1nnc2c(NC3CCN(S(C)(=O)=O)CC3)nc(-c3nc4cnc(N5CCOCC5)cc4n3CCOC(C)C)cn12 [I-23] | 0.122 µM
CNc1nc(-c2nc3cnc(N4CCOCC4)cc3n2[C@H](C)COC)cn2c(C)nnc12 [I-11] | 0.549 µM
COC[C@H](C)n1c(-c2cn3c(C)nnc3c(NC(C)C)n2)nc2ccc(N3CCOC[C@@H]3C)cc21 [I-19] | 0.058 µM
CNc1nc(-c2nc3cnc(N4CCOCC4)cc3n2CC2CCCO2)cn2c(C)nnc12 (stereo not shown) [I-9] | 0.065 µM
COC[C@@H](C)n1c(-c2cn3c(C)nnc3c(NC(C)C)n2)nc2cnc(N3CCOCC3)cc21 [I-2] | 0.333 µM

Now those with a lower IC50, led by results:

IC50 | Compound
0.033 µM | COC[C@H](C)n1c(-c2cn3c(C)nnc3c(NC(C)C)n2)nc2cnc(N3CCOCC3)cc21 [I-3]
0.026 µM | Cc1nnc2c(NC(C)C)nc(-c3nc4cnc(N5CCOC[C@@H]5C)cc4n3C(C)CC(F)(F)F)cn12 (stereo partly shown) [I-27]
0.049 µM | COCCn1c(-c2cn3c(C)nnc3c(NC(C)C)n2)nc2nc(N3CCOCC3)ccc21 [I-29]
0.009 µM | Cc1nnc2c(NC(C)C)nc(-c3nc4cnc(N5CCOC[C@@H]5C)cc4n3C(C)CC3CC3)cn12 (stereo partly shown) [I-25]
0.017 µM | COC[C@H](C)n1c(-c2cn3c(C)nnc3c(NC(C)C)n2)nc2cc3c(cc21)N(C(C)C)S(=O)(=O)C3(C)C [I-21]
0.035 µM | Cc1nnc2c(NC3CCN(C)CC3)nc(-c3nc4cnc(N5CCOCC5)cc4n3CCOC(C)C)cn12 [I-22]
0.027 µM | CNc1nc(-c2nc3cnc(N4CCOC[C@@H]4C)cc3n2[C@@H](C)COC)cn2c(C)nnc12 [I-13]
0.022 µM | COC[C@H](C)n1c(-c2cn3c(C)nnc3c(NC(C)C)n2)nc2cc3c(cc21)N(C)C(=O)C3(C)C [I-16]
0.043 µM | Cc1nnc2c(NC(C)C)nc(-c3nc4cnc(N5CCOCC5)cc4n3CCOC(C)C)cn12 [I-4]
0.049 µM | COC[C@H](C)n1c(-c2cn3c(C)nnc3c(NC(C)C)n2)nc2ccc(C3CCOCC3)cc21 [I-14]
0.033 µM | CCOCCn1c(-c2cn3c(C)nnc3c(NC(C)C)n2)nc2cnc(N3CCOCC3)cc21 [I-5]
0.032 µM | COCCn1c(-c2cn3c(C)nnc3c(NC(C)C)n2)nc2cnc(N3CCOCC3)cc21 [I-1, 6-[1-(2-methoxyethyl)-6-(morpholin-4-yl)-1H-imidazo[4,5-c]pyridin-2-yl]-3-methyl-N-(propan-2-yl)-[1,2,4]triazolo[4,3-a]pyrazin-8-amine]
